These results are taken from patent US20070185149A1, “Novel amido-substituted hydroxy-6-phenylphenanthridines and their use as pde4 inhibtors” (ALTANA PHARMA AG, priority 2004, published 2007).

In the experiment the target is T1, PDE4B2 (Homo sapiens, UniProt Q07343).
T1 construct: made in house; host or cells: SF21 insect cells (baculovirus; virus prepared in SF9 cells)
Description: Inhibition of PDE4 activity: PDE4B2 [3H]cAMP SPA enzyme assay. Type of experiment: biochemical. To be noted: recombinant PDE4B2 (SF21 cell supernatant), modified SPA test, 0.5 μM cAMP, 15 min at 37° C.; read-out: Inhibition of the PDE4 activity, −log IC50 (converted). As to the method:
The PDE4B2 (GB no. M97515) was a gift of Prof. M. Conti (Stanford University, USA). It was amplified from the original plasmid (pCMV5) via PCR with primers Rb9 (5′-[…]-3′) and Rb10 (5′-[…]-3′) and cloned into the pCR-Bac vector (Invitrogen, Groningen, NL).
The recombinant baculovirus was prepared by means of homologous recombination in SF9 insect cells.
The expression plasmid was cotransfected with Bac-N-Blue (Invitrogen, Groningen, NL) or Baculo-Gold DNA (Pharmingen, Hamburg) using a standard protocol (Pharmingen, Hamburg). Wt virus-free recombinant virus supernatant was selected using plaque assay methods. After that, high-titre virus supernatant was prepared by amplifying 3 times. PDE was expressed in SF21 cells by infecting 2×10^6 cells/ml with an MOI (multiplicity of infection) between 1 and 10 in serum-free SF900 medium (Life Technologies, Paisley, UK). The cells were cultured at 28° C. for 48-72 hours, after which they were pelleted for 5-10 min at 1000 g and 4° C.
The SF21 insect cells were resuspended, at a concentration of approx. 10^7 cells/ml, in ice-cold (4° C.) homogenization buffer (20 mM Tris, pH 8.2, containing the following additions: 140 mM NaCl, 3.8 mM KCl, 1 mM EGTA, 1 mM MgCl2, 10 mM β-mercaptoethanol, 2 mM benzamidine, 0.4 mM Pefablock, 10 μM leupeptin, 10 μM pepstatin A, 5 μM trypsin inhibitor) and disrupted by ultrasonication. The homogenate was then centrifuged for 10 min at 1000×g and the supernatant was stored at −80° C. until subsequent use (see below). The protein content was determined by the Bradford method (BioRad, Munich) using BSA as the standard.
PDE4B2 activity is inhibited by the said compounds in a modified SPA (scintillation proximity assay) test, supplied by Amersham Biosciences (see procedural instructions “phosphodiesterase [3H]cAMP SPA enzyme assay, code TRKQ 7090”), carried out in 96-well microtitre plates (MTP's). The test volume is 100 μl and contains 20 mM Tris buffer (pH 7.4), 0.1 mg of BSA (bovine serum albumin)/ml, 5 mM Mg^2+, 0.5 μM cAMP (including about 50,000 cpm of [3H]cAMP), 1 μl of the respective substance dilution in DMSO and sufficient recombinant PDE (1000×g supernatant, see above) to ensure that 10-20% of the cAMP is converted under the said experimental conditions. […] After a preincubation of 5 min at 37° C., the reaction is started by adding the substrate (cAMP) and the assay is incubated for a further 15 min; after that, it is stopped by adding SPA beads (50 μl). In accordance with the manufacturer's instructions, the SPA beads had previously been resuspended in water, but were then diluted 1:3 (v/v) in water; the diluted solution also contains 3 mM IBMX to ensure a complete PDE activity stop. After the beads have been sedimented (>30 min), the MTP's are analyzed in commercially available […]. The corresponding IC50 values of the compounds for the inhibition of PDE activity are determined from the concentration-effect curves by means of non-linear regression.

Each structure is given as a SMILES string.

T1 sequence (Q07343 1-564 isoform Q07343-2): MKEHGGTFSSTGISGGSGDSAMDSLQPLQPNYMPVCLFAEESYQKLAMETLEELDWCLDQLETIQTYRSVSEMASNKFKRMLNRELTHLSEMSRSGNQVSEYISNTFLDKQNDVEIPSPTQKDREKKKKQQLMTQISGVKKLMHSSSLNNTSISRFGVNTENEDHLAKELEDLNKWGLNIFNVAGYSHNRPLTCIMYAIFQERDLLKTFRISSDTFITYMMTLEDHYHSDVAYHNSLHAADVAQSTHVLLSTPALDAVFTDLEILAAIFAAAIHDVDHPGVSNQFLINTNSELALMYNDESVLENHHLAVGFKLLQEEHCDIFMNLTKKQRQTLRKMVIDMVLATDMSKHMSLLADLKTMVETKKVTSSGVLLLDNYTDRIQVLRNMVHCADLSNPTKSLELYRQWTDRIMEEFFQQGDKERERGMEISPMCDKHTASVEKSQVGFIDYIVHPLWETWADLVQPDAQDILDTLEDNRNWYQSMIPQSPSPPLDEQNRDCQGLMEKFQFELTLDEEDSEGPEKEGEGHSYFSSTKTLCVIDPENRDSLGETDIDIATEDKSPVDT

By IC50 is commonly meant the concentration that inhibits the measured activity by half. Consider `COc1cc2c(cc1OC(F)F)[C@H]1C[C@H](O)CC[C@H]1N=C2c1ccc(C(=O)N2CCN(CCN3CCOCC3)CC2)cc1` (racemic) [Compound 29, 1-{4-[(2RS,4aRS,10bRS)-9-(1,1-Difluoro-methoxy)-2-hydroxy-8-methoxy-1,2,3,4,4a,10b-hexahydro-phenanthridin-6-yl]-phenyl}-1-[4(2-morpholin-4-yl-ethyl)-piperazin-1-yl]-methanone], for which the concentration for half-maximal inhibition (IC50) is 0.955 to 8.71 nM.

On to `COc1cc2c(cc1OC(F)F)[C@H]1C[C@H](O)CC[C@H]1N=C2c1ccc(C(=O)N2CCN(c3ccncc3)CC2)cc1` (racemic) [Compound 30, 1-{4-[(2RS,4aRS,10bRS)-9-(1,1-Difluoro-methoxy)-2-hydroxy-8-methoxy-1,2,3,4,4a,10b-hexahydro-phenanthridin-6-yl]-phenyl}-1-(4-pyridin-4-yl-piperazin-1-yl)-methanone], for which the IC50 is 0.955 to 8.71 nM.

As for `COc1cc2c(cc1OC(F)F)[C@H]1C[C@H](O)CC[C@H]1N=C2c1ccc(C(=O)N2CCN(CC(=O)Nc3ccccn3)CC2)cc1` (racemic) [Compound 31, 2-[4(1-{4-[(2RS,4aRS,10bRS)-9-(1,1-Difluoro-methoxy)-2-hydroxy-8-methoxy-1,2,3,4,4a,10b-hexahydro-phenanthridin-6-yl]-phenyl}-methanoyl)-piperazin-1-yl]-N-pyridin-2-yl-acetamide], the IC50 was 0.955 to 8.71 nM.

On to `COc1cc2c(cc1OC(F)F)[C@H]1C[C@H](O)CC[C@H]1N=C2c1ccc(C(=O)N2CCCC2)cc1` (racemic) [Compound 33, 1-{4-[(2RS,4aRS,10bRS)-9-(1,1-Difluoro-methoxy)-2-hydroxy-8-methoxy-1,2,3,4,4a,10b-hexahydro-phenanthridin-6-yl]-phenyl}-1-pyrrolidin-1-yl-methanone], for which the IC50 is 0.955 to 8.71 nM.

On to `COc1cc2c(cc1OC(F)F)[C@H]1C[C@H](O)CC[C@H]1N=C2c1ccc(C(=O)N2CCN(CCN(C)C)CC2)cc1` (racemic) [Compound 35, 1-{4-[(2RS,4aRS,10bRS)-9-(1,1-Difluoro-methoxy)-2-hydroxy-8-methoxy-1,2,3,4,4a,10b-hexahydro-phenanthridin-6-yl]-phenyl}-1-[4-(2-dimethylamino-ethyl)-piperazin-1-yl]-methanone], for which the IC50 was 0.955 to 8.71 nM.

On to `COc1cc2c(cc1OC)C1CC(O)CCC1N=C2c1ccc(C(=O)NCCN2CCOCC2)cc1` (stereo not drawn) [Compound 1], for which the IC50 is 0.955 to 8.71 nM.

As to `COc1cc2c(cc1OC)C1CC(O)CCC1N=C2c1ccc(C(=O)NCCCN2CCOCC2)cc1` (stereo not drawn) [Compound 2], the IC50 is 0.955 to 8.71 nM.

In the case of `COc1cc2c(cc1OC)C1CC(O)CCC1N=C2c1ccc(C(=O)NN2CCOCC2)cc1` (stereo not drawn) [Compound 4], the IC50 was 0.955 to 8.71 nM.

Take `COC(=O)CN(C)C(=O)c1ccc(C2=NC3CCC(O)CC3c3cc(OC)c(OC)cc32)cc1` (stereo not drawn) [Compound 5]: the concentration for half-maximal inhibition (IC50) is 0.955 to 8.71 nM.

As for `COc1cc2c(cc1OC)C1CC(O)CCC1N=C2c1ccc(C(=O)N2CCN(c3ccccn3)CC2)cc1` (stereo not drawn) [Compound 8], the IC50 was 0.955 to 8.71 nM.

As to `CCN(CCOC)C(=O)c1ccc(C2=NC3CCC(O)CC3c3cc(OC)c(OC)cc32)cc1` (stereo not drawn) [Compound 10], the half-maximal inhibitory concentration (IC50) is 0.955 to 8.71 nM.

Consider `COc1cc2c(cc1OC)C1CC(O)CCC1N=C2c1ccc(C(=O)N2CCN(CC(=O)N(C)C)CC2)cc1` [Compound 16, 2-(4-{1-[4-((2R,4aR,10bR)-2-Hydroxy-8,9-dimethoxy-1,2,3,4,4a,10b-hexahydro-phenanthridin-6-yiyphenyl]-methanoyl}-piperazin-1-yl)-N,N-dimethyl-acetamide], for which the IC50 was 0.955 to 8.71 nM.

`COc1cc2c(cc1OC)C1CC(O)CCC1N=C2c1ccc(C(=O)N2CCN(c3ccncc3)CC2)cc1` (stereo not drawn) [Compound 18]: the IC50 is 0.955 to 8.71 nM.

On to `COc1cc2c(cc1OC(F)F)C1CC(O)CCC1N=C2c1ccc(C(=O)N2CCN(CC(=O)N3CCOCC3)CC2)cc1` (stereo not drawn) [Compound 32, 2-[4-(1-{4-[(2RS,4aRS,10bRS)-9-(1,1-Difluoro-methoxy)-2-hydroxy-8-methoxy-1,2,3,4,4a,10bhexahydro-phenanthridin-6-yl]-phenyl}-methanoyl)-piperazin-1-yl]-1-morpholin-4-yl-ethanone], for which the IC50 was 0.955 to 8.71 nM.

Consider `COc1cc2c(cc1OC(F)F)C1CC(O)CCC1N=C2c1ccc(C(=O)N2CCN(CC(=O)N(C)C)CC2)cc1` (stereo not drawn) [Compound 34, 2-[4-(1-{4-[(2RS,4aRS,10bRS)-9-(1,1-Difluoro-methoxy)-2-hydroxy-8-methoxy-1,2,3,4,4a,10bhexahydro-phenanthridin-6-yl]-phenyl}-methanoyl)-piperazin-1-yl]-N,N-dimethyl-acetamide], for which the IC50 is 0.955 to 8.71 nM.
